From ChEMBL document CHEMBL4665663, “Anti-atherosclerosis effect of HS donors based on nicotinic acid and chlorfibrate structures” (Bioorg Med Chem, 2019)
The source made the active and inactive calls. The calls are words filed in the database; no cut-off is given here.

How the values were obtained:
HUVEC [1] = experiment: Anti-atherosclerotic activity against ox-LDL induced cell damage in human HUVEC cells assessed as reduction in nuclear pyknosis and apoptotic bodies formation preincubated for 10 mins followed by ox-LDL stimulation and measured after 24 hrs by Hoechst 33342 staining based fluorescence microscopy; type: functional
RAW264.7 [2] = experiment: Cytotoxicity against mouse RAW264.7 cells assessed as reduction in cell viability after 48 hrs by MTT assay; type: cell-based; details: RAW264.7, 48 h
[3] = Prodrug release in phosphate buffer containing L-cysteine assessed as H2S release by measuring H2S releasing half-life at 60 uM by methylene blue method; type: ADME
HUVEC [4] = experiment: Cytoprotective activity against ox-LDL induced cell damage in human HUVEC cells assessed as increase in cell viability at 50 uM preincubated for 10 mins followed by ox-LDL stimulation measured after 24 hrs by MTT assay; type: functional, cell-based
RAW264.7 [5] = experiment: Antioxidant activity in mouse RAW264.7 cells assessed as reduction in ox-LDL induced ROS accumulation at 10 to 50 uM preincubated for 10 mins followed by ox-LDL stimulation and measured after 24 hrs by DCFH-DA staining based fluorescence microscopic analysis; type: functional, cell-based; details: dose microM 10-50, time 10.0 min
RAW264.7 [6] = experiment: Anti-inflammatory activity in mouse RAW264.7 cells assessed as decrease in ox-LDL induced inflammatory reaction by measuring increase in IL-10 production preincubated for 10 mins followed by ox-LDL stimulation and measured after 24 hrs; type: functional, cell-based; details: dose microM 10-50, time 10.0 min
HUVEC [7] = experiment: Cytoprotective activity against ox-LDL induced cell damage in human HUVEC cells assessed as cell viability at 100 uM preincubated for 10 mins followed by ox-LDL stimulation measured after 24 hrs by MTT assay (reference value: 73.1%); type: functional; details: read-out: Activity
RAW264.7 [8] = experiment: Antioxidant activity in mouse RAW264.7 cells assessed as reduction in ox-LDL induced oxidative stress by measuring decrease in MDA level at 50 uM preincubated for 10 mins followed by ox-LDL stimulation and measured after 24 hrs relative to control; type: functional; details: RAW264.7, 10 min
HUVEC [9] = experiment: Anti-atherosclerotic activity against ox-LDL induced apoptosis in human HUVEC cells assessed as increase in bcl-2 expression at 50 uM preincubated for 10 mins followed by ox-LDL stimulation and measured after 24 hrs by ELISA; type: functional
RAW264.7 [10] = experiment: Anti-atherosclerotic activity in mouse RAW264.7 cells assessed as decrease in ox-LDL induced PI3K protein expression at 10 to 50 uM preincubated for 10 mins followed by ox-LDL stimulation and measured after 24 hrs by Western blot analysis; type: functional, cell-based; details: dose microM 10-50, time 10.0 min
HUVEC [11] = experiment: Anti-atherosclerotic activity against ox-LDL induced cell damage in human HUVEC cells assessed as reduction in early apoptotic cells by measuring increase in mitochondrial membrane potential preincubated for 10 mins followed by ox-LDL stimulation and measured after 24 hrs by JC-1 staining based fluorescence microscopic analysis; type: functional
RAW264.7 [12] = experiment: Anti-atherosclerotic activity in mouse RAW264.7 cells assessed as decrease in ox-LDL induced NFkappaB protein expression at 10 to 50 uM preincubated for 10 mins followed by ox-LDL stimulation and measured after 24 hrs by Western blot analysis; type: functional, cell-based; details: dose microM 10-50, time 10.0 min
HUVEC [13] = experiment: Anti-atherosclerotic activity against ox-LDL induced apoptosis in human HUVEC cells assessed as reduction in Bax expression at 10 to 50 uM preincubated for 10 mins followed by ox-LDL stimulation and measured after 24 hrs by ELISA; type: functional, cell-based; details: dose microM 10-50, time 10.0 min
WI-38 = experiment: Cytotoxicity against human WI38 cells assessed as reduction in cell viability after 48 hrs by MTT assay; type: cell-based; details: WI-38, 48 h
RAW264.7 [14] = experiment: Anti-atherosclerotic activity in mouse RAW264.7 cells assessed as decrease in ox-LDL induced intracellular lipid accumulation by measuring reduction in CE/TC ratio at 50 uM preincubated for 10 mins followed by ox-LDL stimulation and measured after 24 hrs by colorimetric method relative to control; type: functional; details: RAW264.7, 10 min
RAW264.7 [15] = experiment: Inhibition of macrophage foam cell formation in mouse RAW264.7 cells assessed as reduction in ox-LDL induced red lipid droplets formation preincubated for 10 mins followed by ox-LDL stimulation and measured after 24 hrs by oil red O staining based inverted microscopy analysis; type: functional; details: dose microM 10-50, time 10.0 min
RAW264.7 [16] = experiment: Inhibition of macrophage foam cell formation in mouse RAW264.7 cells assessed as reduction in ox-LDL induced red lipid droplets formation at 50 uM preincubated for 10 mins followed by ox-LDL stimulation and measured after 24 hrs by oil red O staining based inverted microscopy analysis; type: functional
RAW264.7 [17] = experiment: Anti-atherosclerotic activity in mouse RAW264.7 cells assessed as decrease in ox-LDL induced intracellular lipid accumulation by measuring reduction in total cholesterol level at 50 uM preincubated for 10 mins followed by ox-LDL stimulation and measured after 24 hrs by colorimetric method relative to control; type: functional; details: RAW264.7, 10 min
HUVEC [18] = experiment: Anti-atherosclerotic activity against ox-LDL induced apoptosis in human HUVEC cells assessed as reduction in caspase-3 expression at 10 to 50 uM preincubated for 10 mins followed by ox-LDL stimulation and measured after 24 hrs by ELISA; type: functional, cell-based; details: dose microM 10-50, time 10.0 min
RAW264.7 [19] = experiment: Anti-inflammatory activity in mouse RAW264.7 cells assessed as decrease in ox-LDL induced inflammatory reaction by measuring decrease in TNF-alpha production preincubated for 10 mins followed by ox-LDL stimulation and measured after 24 hrs; type: functional, cell-based; details: dose microM 10-50, time 10.0 min
RAW264.7 [20] = experiment: Anti-atherosclerotic activity in mouse RAW264.7 cells assessed as decrease in ox-LDL induced AKT protein expression at 10 to 50 uM preincubated for 10 mins followed by ox-LDL stimulation and measured after 24 hrs by Western blot analysis; type: functional, cell-based; details: dose microM 10-50, time 10.0 min
RAW264.7 [21] = experiment: Antioxidant activity in mouse RAW264.7 cells assessed as reduction in ox-LDL-induced oxidative stress by measuring increase in SOD level at 50 uM preincubated for 10 mins followed by ox-LDL stimulation and measured after 24 hrs relative to control; type: functional; design: scale not given: the % may be the effect or the level left
H9c2 = experiment: Cytotoxicity against rat H9c2 cells assessed as reduction in cell viability after 48 hrs by MTT assay; type: cell-based; details: H9c2, 48 h
HUVEC [22] = experiment: Anti-atherosclerotic activity against ox-LDL induced cell damage in human HUVEC cells assessed as reduction in late apoptotic and death cells preincubated for 10 mins followed by ox-LDL stimulation and measured after 24 hrs by PI staining based fluorescence microscopic analysis; type: functional
RAW264.7 [23] = experiment: Anti-atherosclerotic activity in mouse RAW264.7 cells assessed as decrease in ox-LDL induced intracellular lipid accumulation by measuring reduction in free cholesterol level at 50 uM preincubated for 10 mins followed by ox-LDL stimulation and measured after 24 hrs by colorimetric method relative to control; type: functional; details: RAW264.7, 10 min
HUVEC [24] = experiment: Cytotoxicity against human HUVEC cells assessed as reduction in cell viability at 10 to 100 uM by MTT assay; type: cell-based; details: dose 10-100 µM
HUVEC [25] = experiment: Cytotoxicity against human HUVEC cells assessed as reduction in cell viability after 48 hrs by MTT assay; type: cell-based
RAW264.7 [26] = experiment: Anti-atherosclerotic activity in mouse RAW264.7 cells assessed as decrease in ox-LDL induced intracellular lipid accumulation by measuring reduction in total cholesterol level at 10 to 50 uM preincubated for 10 mins followed by ox-LDL stimulation and measured after 24 hrs by colorimetric method; type: functional, cell-based; details: dose microM 10-50, time 10.0 min
RAW264.7 [27] = experiment: Anti-atherosclerotic activity in mouse RAW264.7 cells assessed as decrease in ox-LDL induced intracellular lipid accumulation by measuring reduction in free cholesterol level at 10 to 50 uM preincubated for 10 mins followed by ox-LDL stimulation and measured after 24 hrs by colorimetric method; type: functional, cell-based; details: dose microM 10-50, time 10.0 min

Compound | Activity (HUVEC [1]) | IC50 (RAW264.7 [2]) | t1/2 [3] | Activity (HUVEC [4]) | Activity (RAW264.7 [5]) | Activity (RAW264.7 [6]) | viability at 100 µM (HUVEC [7]) | inhibition at 50 µM (RAW264.7 [8]) | Activity (HUVEC [9]) | Activity (RAW264.7 [10]) | Activity (HUVEC [11]) | Activity (RAW264.7 [12]) | Activity (HUVEC [13]) | IC50 (WI-38) | inhibition at 50 µM (RAW264.7 [14]) | inhibition (RAW264.7 [15]) | inhibition (RAW264.7 [16]) | Activity (HUVEC [18]) | Activity (RAW264.7 [19]) | Activity (RAW264.7 [20]) | other results
CC(C)(Oc1ccc(Cl)cc1)C(=O)OCCCOC(=O)CCCCC1CCSS1 (centres undefined) | Active | > 800 µM | 21.3 min | Active | Active | Dose-dependent effect | 89.2% | 41% | 31.9% | Active | Active | Active | Active | > 800 µM | 30.9% | Dose-dependent effect | Active | Active | Dose-dependent effect | Active | inhibition at 50 µM (RAW264.7 [17]): 52.4%; Activity (RAW264.7 [21]): 45.4%; IC50 (H9c2): > 800 µM; Activity (HUVEC [22]): Active; inhibition at 50 µM (RAW264.7 [23]): 25.4%; Activity (HUVEC [24]): Non-Toxic; IC50 (HUVEC [25]): > 800 µM
O=C(CCCCC1CCSS1)OCCCOC(=O)c1cccnc1 (centres undefined) | Active | > 800 µM | 15.3 min | Active | Active | Dose-dependent effect | 85.9% | 47% | 32.7% | Active | Active | Active | Active | > 800 µM | 32.4% | Dose-dependent effect | Active | Active | Dose-dependent effect | Active | Activity (RAW264.7 [26]): Active; Activity (RAW264.7 [21]): 48.3%; Activity (RAW264.7 [27]): Active; IC50 (H9c2): > 800 µM; Activity (HUVEC [22]): Active; Activity (HUVEC [24]): Non-Toxic; IC50 (HUVEC [25]): > 800 µM
